Tests used:
C57/BL6 mice = assay: Oral Glucose Tolerance Tests (OGTT) in C57/BL6 mice; assay type: in vivo; conditions: single oral dose, glucose load 3 gm/kg, serum glucose AUC, head 50 mg/kg
Protocol: In Vivo Efficacy Studies: Oral Glucose Tolerance Tests (OGTT) in C57/13L6 mice:
C57/BL6 mice of 6-8 week age are used for this experiment. Animals are grouped based on non-fasting serum glucose levels and kept on fasting for overnight (day before OGTT). On the experiment day, […], 30 min post dosing animals are bled for basal glucose level estimation and at the same time glucose load (3 gm/kg) will be administered per orally. Blood is collected at time points corresponding to 20, 40, 60 and 120 min after glucose load administration. Serum is separated for determination of glucose levels and change in area under curve for glucose is calculated and provided in Table 3 as % to reduction in AUC.

human GPR 119 receptor = target: T1, human GPR 119 receptor (Homo sapiens, UniProt Q8TDV5); assay: cAMP assay in stable cell line expressing recombinant human GPR 119 receptor; assay type: cell-based; conditions: for Fold increase in cyclic AMP with respective to DMSO: DMSO = 1
T1 construct: expressed in transfected cells
T1 sequence (Q8TDV5 1-335): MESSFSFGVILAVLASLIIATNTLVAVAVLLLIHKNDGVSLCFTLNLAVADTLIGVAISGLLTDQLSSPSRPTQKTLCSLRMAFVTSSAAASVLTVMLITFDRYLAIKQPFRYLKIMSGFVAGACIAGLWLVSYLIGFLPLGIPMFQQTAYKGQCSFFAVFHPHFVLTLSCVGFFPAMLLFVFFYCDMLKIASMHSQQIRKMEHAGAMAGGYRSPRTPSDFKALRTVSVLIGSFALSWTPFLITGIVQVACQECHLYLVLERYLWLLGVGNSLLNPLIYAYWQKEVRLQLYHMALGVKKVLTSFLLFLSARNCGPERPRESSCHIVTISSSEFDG
Text: A stable cell line expressing recombinant human GPR 119 receptor was established and used to investigate the efficacy of the compounds of the invention based on the intracellular levels of cyclic AMP (cAMP) using commercially available cAMP kits.

EC50 (human GPR 119 receptor) [nM]	Fold increase in cyclic AMP with respective to DMSO (human GPR 119 receptor; 10 nM compound) [fold]	Fold increase in cyclic AMP with respective to DMSO (human GPR 119 receptor; 100 nM compound) [fold]	Fold increase in cyclic AMP with respective to DMSO (human GPR 119 receptor; 1 uM compound) [fold]	SMILES	% reduction in AUC at 50 mg/kg (C57/BL6 mice) [%]
	1.15	1.94	3.36	CCOC(=O)N1CCC(Oc2cc(Oc3ccc(/C=C4\SC(=O)NC4=O)cc3)ncn2)CC1 [Example 52, (Z)-Ethyl 4-((6-(4-((2,4-dioxothiazolidin-5-ylidene)methyl)phenoxy)pyrimidin-4-yl)oxy)piperidine-1-carboxylate]	
	0.94	1.27	1.98	O=C1NC(=O)/C(=C/c2ccc(Oc3cc(OC4CCN(c5ncccn5)CC4)ncn3)cc2)S1 [Example 43, (Z)-5-(4-((6-((1-(Pyrimidin-2-yl)piperidin-4-yl)oxy)pyrimidin-4-yl)oxy)benzylidene)thiazolidine-2,4-dione]	
	1.38	2.89	4.79	Cc1c(Oc2cccc(/C=C3\SC(=O)NC3=O)c2)ncnc1OC1CCN(Cc2ccccc2)CC1 [Example 27, (Z)-5-(3-((6-((1-Benzylpiperidin-4-yl)oxy)-5-methylpyrimidin-4-yl)oxy)benzylidene)thiazolidine-2,4-dione]	
	1.00	1.58	3.53	CCc1cnc(N2CCC(Oc3cc(Oc4ccc(/C=C5\SC(=O)NC5=O)cc4)ncn3)CC2)nc1 [Example 41, (Z)-5-(4-((6-((1-(5-Ethylpyrimidin-2-yl)piperidin-4-yl)oxy)pyrimidin-4-yl)oxy)benzylidene)thiazolidine-2,4-dione]	
	1.72	2.19	3.28	Cc1c(Oc2ccc(/C=C3\SC(=O)NC3=O)cc2)ncnc1OC1CCN(C(=O)OCC(C)C)CC1 [Example 15, (Z)-iso-Butyl 4-((6-(4-((2,4-dioxothiazolidin-5-ylidene)methyl)phenoxy)-5-methylpyrimidin-4-yl)oxy)piperidine-1-carboxylate]	
	0.64	0.88	2.02	CCc1cnc(N2CCC(Oc3ncnc(Oc4ccc(/C=C5\SC(=O)N(S(C)(=O)=O)C5=O)cc4)c3C)CC2)nc1 [Example 3, (2)-5-(4-((6-((1-(5-Ethylpyrimidin-2-yl)piperidin-4-yl)oxy)-5-methylpyrimidin-4-yl)oxy)benzylidene)-3-(methylsulfonyl)thiazolidine-2,4-dione]	

Further lines, the molecule ahead of its results:

SMILES	EC50 (human GPR 119 receptor) [nM]	Fold increase in cyclic AMP with respective to DMSO (human GPR 119 receptor; 10 nM compound) [fold]	Fold increase in cyclic AMP with respective to DMSO (human GPR 119 receptor; 100 nM compound) [fold]	Fold increase in cyclic AMP with respective to DMSO (human GPR 119 receptor; 1 uM compound) [fold]	% reduction in AUC at 50 mg/kg (C57/BL6 mice) [%]
CC(C)c1noc(N2CCC(Oc3cc(Oc4cccc(/C=C5\SC(=O)NC5=O)c4)ncn3)CC2)n1 [Example 66, (Z)-5-(3-((6-((1-(3-isopropyl-1,2,4-oxadiazol-5-yl)piperidin-4-yl)oxy)pyrimidin-4-yl)oxy)benzylidene)thiazolidine-2,4-dione]	71				41.1
COC(=O)N1CCC(Oc2cc(Oc3cccc(/C=C4\SC(=O)NC4=O)c3)ncn2)CC1 [Example 36, (Z)-Methyl 4-((6-(3-((2,4-dioxothiazolidin-5-ylidene)methyl)phenoxy)pyrimidin-4-yl)oxy)piperidine-1-carboxylate]		0.80	1.38	2.19	
O=C1NC(=O)/C(=C/c2cccc(Oc3cc(OC4CCN(C(=O)OCc5ccccc5)CC4)ncn3)c2)S1 [Example 29, (Z)-Benzyl 4-((6-(3-((2,4-dioxothiazolidin-5-ylidene)methy 1)phenoxy)pyrimidin-4-yl)oxy)piperidine-1-carboxylate]		2.09	3.66	8.17	
CCN1C(=O)S/C(=C\c2ccc(Oc3cc(OC4CCN(C(=O)OC(C)(C)C)CC4)ncn3)cc2)C1=O [Example 31, (Z)-tert-Butyl 4-((6-(4-((3-ethyl-2,4-doxothiazolidin-5-ylidene)methyl)phenoxy)pyrimidin-4-yl)oxy)piperidine-1-carboxylate]		1.06	2.27	3.66	
COc1cc(/C=C2\SC(=O)NC2=O)ccc1Oc1ncnc(OC2CCN(C(=O)OC(C)(C)C)CC2)c1C [Example 8, (Z)-tert-Butyl 4-((6-(4-((2,4-dioxothiazolidin-5-ylidene)methyl)-2-methoxyphenoxy)-5-methylpyrimidin-4-yl)oxy)piperidine-1-carboxylate]		0.52	0.85	1.67	
COC(=O)N1CCC(Oc2cc(Oc3ccc(/C=C4\SC(=O)NC4=O)cc3)ncn2)CC1 [Example 35, (Z)-Methyl 4-((6-(4-((2,4-dioxothiazolidin-5-ylidene)methyl)phenoxy)pyrimidin-4-yl)oxy)piperidine-1-carboxylate]		0.56	0.57	0.96	
O=C1NC(=O)/C(=C/c2cccc(Oc3cc(OC4CCN(Cc5ccccc5)CC4)ncn3)c2)S1 [Example 39, (Z)-5-(3-((6-((1-Benzylpiperidin-4-yl)oxy)pyrimidin-4-yl)oxy)benzylidene)thiazolidine-2,4-dione]		0.85	1.38	2.20	
O=C1NC(=O)/C(=C/c2ccc(Oc3cc(OC4CCN(C(=O)OCc5ccccc5)CC4)ncn3)cc2)S1 [Example 30, (Z)-Benzyl 4-((6-(4-((2,4-dioxothiazolidin-5-ylidene)methyl)phenoxy)pyrimidin-4-yl)oxy)piperidine-1-carboxylate]		2.29	3.59	7.4	
Cc1c(OCC2CCCN2C(=O)OC(C)(C)C)ncnc1Oc1cccc(/C=C2\SC(=O)NC2=O)c1 (centres unmarked) [Example 23, (Z)-tert-Butyl 2-(((6-(3-((2,4-dioxothiazolidin-5-ylidene)methyl)phenoxy)-5-methylpyrimidin-4-yl)oxy)methyl)pyrrolidine-1-carboxylate]		0.90	1.29	1.11	
